Assay results from patent US11389415B2, “Methods of regulating cannabinoid receptor activity-related disorders and diseases” (The United States of America as represented by the …, priority 2012, dated 2022).

Experiments:
HepG2 cells = test: [3H]-Thymidine incorporation assay in HepG2 cells; type: cell-based, human; details: 1 μM, 24 h
Outline: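 HepG2 and U87MG cells (~50,000/well) were treated 24 hours at 37° C with test compounds in serum-free medium, then labelled 16 hours with 1 μCi [3H]-thymidine. Cells were lysed in 0.1N NaOH and incorporation measured by scintillation counting, expressed as CPM relative to control cells.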

CYP3A4 = target: T1, CYP3A4 (Homo sapiens, UniProt P08684); test: CYP inhibition in human liver microsomes, CYP3A4; type: in vitro ADME; details: 10 μM, 20 minutes, 37° C.
T1 construct: from tissue; host or cells: human liver microsomes
T1 sequence (P08684 whole entry): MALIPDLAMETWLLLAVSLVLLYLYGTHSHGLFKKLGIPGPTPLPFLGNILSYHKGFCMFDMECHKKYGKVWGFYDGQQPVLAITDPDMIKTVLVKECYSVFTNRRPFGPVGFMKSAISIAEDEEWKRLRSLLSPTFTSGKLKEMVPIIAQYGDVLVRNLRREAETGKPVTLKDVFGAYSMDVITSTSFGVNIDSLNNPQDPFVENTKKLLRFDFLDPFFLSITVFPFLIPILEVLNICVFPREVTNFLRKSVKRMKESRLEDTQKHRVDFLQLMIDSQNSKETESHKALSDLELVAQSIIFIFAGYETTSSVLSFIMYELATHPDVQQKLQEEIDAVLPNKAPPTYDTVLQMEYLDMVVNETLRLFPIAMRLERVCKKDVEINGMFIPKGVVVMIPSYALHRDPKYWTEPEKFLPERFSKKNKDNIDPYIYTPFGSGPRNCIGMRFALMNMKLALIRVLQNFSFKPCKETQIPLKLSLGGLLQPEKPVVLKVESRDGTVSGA
Procedure: (§1) Incubations containing known CYP inhibitors were also included as positive controls. Formation of the model substrate metabolites was measured by LC-MS/MS and compared to control incubations (incubation of substrates with microsomes and cofactors, no test articles or inhibitors). CYP activity in presence of test compound (MNF) that was less than 70% of control was considered significant. MNF (10 μM) inhibited CYP2D6 and CYP3A4 to less than 70% of the control. Further, the primary metabolite was determined to be O-demethylated-MNF. These studies indicate that MNF alters the metabolism of other drugs or endogenous compounds that are substrates for CYP2D6 and/or CYP3A4 isoforms, when present in the plasma or liver at 10 μM or higher.

cyclin A and cyclin D1 = test: Western blot of cell cycle regulator proteins (cyclin A, cyclin D1), C6 glioma; set-up: species or system mouse; details: C6 glioma in vivo and in vitro
From the text: Western Blot Analysis. Frozen tumor tissues were lysed with radioimmune precipitation buffer containing EGTA and EDTA (Boston BioProducts, Ashland, Mass.) supplemented with a phosphatase inhibitor cocktail (EMB-Calbiochem), and protease inhibitor cocktail (Sigma-Aldrich), according to standard protocols. Equal amounts of protein from the clarified lysates were separated by SDS-polyacrylamide gel electrophoresis under reducing conditions (Invitrogen, Carlsbad, Calif.), and electrotransferred onto polyvinylidene difluoride membranes using the iBlot system (Invitrogen). Western blots were performed according to standard methods, which involved blocking the membrane in 5% non-fat milk, followed by sequential incubation method with the primary antibody of interest and secondary antibody conjugated with the enzyme horseradish peroxidase. The detection of immunoreactive bands was performed by chemiluminescence using the ECL Plus Western Blotting Detection System (GE Healthcare, Piscataway, N.J.). Quantitation of the protein bands was done by volume densitometry using ImageJ software (National Institutes of Health, Bethesda, Md.). […]

rat C6 glioma cells = test: 3H-Thymidine incorporation in rat C6 glioma cells; type: cell-based; details: 24 hours
Procedure: Cell culture. The rat-derived C6 glioma cell line was obtained from the American Type Culture Collection (Manassas, Va.). The cells were routinely maintained in DMEM supplemented with L-glutamine, 1% penicillin/streptomycin solution, and 10% FBS in a humidified CO2 incubator at 37° C.
3H-Thymidine incorporation. C6 glioma cells were seeded in 12-well plates at ˜5×10^4 cells/well and incubated for 24 hours followed by a second 24-hour incubation with various concentrations of MNF. Radiolabeled thymidine (10 Ci/mmol; PerkinElmer Life and Analytical Sciences, Waltham, Mass.) was added at 1 μCi per well for 16 hours and its incorporation into DNA was then measured. Each treatment group was performed in triplicate and three independent studies were carried out.

[1] = Dose escalation and 7-day repeat dose range finding study in Sprague-Dawley rats; type: in vivo, rat; details: for Gross Necropsy Observation: interim (Day 8) and terminal (Day 14), red: thymus, mandibular lymph node, black or necrosis: tail
Procedure: A single dose escalation study was performed to select dose levels for 7-day repeat dose study with IV administration in Sprague-Dawley rats. Dose levels were 0, 5, 10 and 25 mg/kg.

CYP2D6 = target: T2, CYP2D6 (Homo sapiens, UniProt P10635); test: CYP inhibition in human liver microsomes, CYP2D6; type: in vitro ADME; details: 10 μM, 20 minutes, 37° C.
T2 construct: from tissue; host or cells: human liver microsomes
T2 sequence (P10635 whole entry): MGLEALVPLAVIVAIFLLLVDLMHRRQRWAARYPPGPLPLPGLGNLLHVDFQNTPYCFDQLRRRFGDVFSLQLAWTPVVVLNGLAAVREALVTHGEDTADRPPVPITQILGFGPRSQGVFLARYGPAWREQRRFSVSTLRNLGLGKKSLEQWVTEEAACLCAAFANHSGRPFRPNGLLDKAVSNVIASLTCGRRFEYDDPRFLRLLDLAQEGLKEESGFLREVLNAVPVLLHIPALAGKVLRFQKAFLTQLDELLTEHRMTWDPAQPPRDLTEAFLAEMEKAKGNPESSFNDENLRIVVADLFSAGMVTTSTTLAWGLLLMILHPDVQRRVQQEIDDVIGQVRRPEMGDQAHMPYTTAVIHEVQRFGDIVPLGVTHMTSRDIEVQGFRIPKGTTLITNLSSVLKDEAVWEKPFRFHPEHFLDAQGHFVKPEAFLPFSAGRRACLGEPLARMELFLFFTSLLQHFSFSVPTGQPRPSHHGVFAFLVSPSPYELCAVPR
Procedure: as §1

[2] = In vitro metabolic stability, rat liver microsomes; type: in vitro ADME; details: rat liver microsomes and cofactors, 37° C., 0-60 minutes
Procedure: (§2) FIG. 10 presents the data from the in vitro metabolic stability study in which MNF was incubated (in duplicate) with active and heat-inactivated human (HLM) and rat (RLM) liver microsomes and cofactors at 37° C. Aliquots were removed at 0, 15, 30 and 60 minutes and the amount of test compound (MNF) remaining at each time point was determined by LC-MS/MS.

U87MG cells = test: [3H]-Thymidine incorporation in U87MG cells; type: cell-based, human; details: compound alone
Procedure: Maintenance and Treatment of Cell Lines. Human HepG2 hepatocarcinoma cells and human U87MG glioma cells (ATCC, Manassas, Va.) were maintained in EMEM medium supplemented with 1% L-glutamine, 1% sodium pyruvate, 1% penicillin/streptomycin, and 10% FBS (Hyclone, Logan, Utah). The human 1321N1 astrocytoma cells (European Collection of Cell Cultures, Sigma-Aldrich) were cultured in Dulbecco's modified Eagle's medium supplemented with 10% FBS and penicillin/streptomycin. All cell lines were cultured at 37° C. in 5% CO2, and the medium was replaced every 2-3 days.
Cells were seeded in 12-well plates at approximately 50,000 cells/well and incubated at 37° C. After 24 hours, the wells were rinsed with PBS and replaced with serum-free medium containing the appropriate concentration of the test compounds. After another 24-hour incubation at 37° C., 1 μCi of [^3H]-thymidine was added to each well and incubated at 37° C. for 16 hours. [^3H]-Thymidine incorporation into DNA was monitored after the cells were washed twice with PBS and then lysed in 600 μL of 0.1N NaOH for 30 minutes with shaking. The lysate was then mixed with 3 mL of liquid scintillation cocktail (Beckman Coulter, Inc., Brea, Calif.), and radioactivity was measured by liquid scintillation counting using Beckman Coulter LS6000IC Scintillation Counter. Data are shown as CPM incorporated compared to the control cells.

GPR55 = GPR55 (Homo sapiens, UniProt Q9Y2T6); test: Cellular uptake of TocriFluor T1117 in HepG2 cells; type: cell-based; set-up: host or cells: HepG2 hepatocarcinoma cells
Chain of GPR55 (Q9Y2T6 whole entry): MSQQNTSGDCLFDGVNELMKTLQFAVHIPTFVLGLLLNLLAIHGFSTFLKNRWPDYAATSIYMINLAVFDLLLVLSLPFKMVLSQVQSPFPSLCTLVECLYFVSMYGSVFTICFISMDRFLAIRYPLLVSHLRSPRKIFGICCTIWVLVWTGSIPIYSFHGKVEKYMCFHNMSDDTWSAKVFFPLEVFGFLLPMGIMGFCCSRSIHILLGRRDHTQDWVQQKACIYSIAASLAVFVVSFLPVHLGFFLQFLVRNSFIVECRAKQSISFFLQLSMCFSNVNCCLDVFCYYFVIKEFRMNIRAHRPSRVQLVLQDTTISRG

[3] = In vitro metabolic stability, human liver microsomes; type: in vitro ADME; details: 37° C.
Procedure: as §2

CAPAN = test: tumor cell growth, CAPAN; details: read-out: IC50 (uM), CAPAN (Pancreatic C)

| SMILES | % Change in HepG2 cells ([3H]-thymidine incorporation) (HepG2 cells) | CYP3A4 activity in presence of test compound (CYP3A4) | expression of cell cycle regulator proteins (cyclin A and cyclin D1) | inhibition of C6 cell growth / reduction in mitogenesis (rat C6 glioma cells; 20 nM) | IC50 (rat C6 glioma cells; then [3H]-thymidine 16 hours, read-out: IC50, growth inhibition of rat C6 glioma cell line) | Body Weight ([1]; Sprague Dawley rats, iv, 0, 5, 10, or 25 mg/kg/day, 7-day) | Clinical Pathology: increases in WBC, % Neut., % RET/REA, and PLC ([1]; high-dose males and females, Day 8 and Day 14) | Gross Necropsy Observation ([1]; black discoloration or necrosis, tail) | Gross Necropsy Observation ([1]; red discoloration, thymus and lymph node) | toxic effects ([1]; single dose escalation, IV, 0, 5, 10 and 25 mg/kg, Sprague-Dawley rats) | CYP2D6 activity in presence of test compound (CYP2D6) | metabolic stability, MNF levels [2] | effect on cellular proliferation (U87MG cells) | reduction in T1117 incorporation (GPR55; HepG2, MNF alone (1 μM), 10 nM T1117) | reduction in T1117 incorporation as compared to vehicle-treated cells (GPR55; HepG2, MNF with AM251 added either before or after the 30-minutes MNF treatment) | T1117 uptake (GPR55; HepG2, MNF 1 μM or AM251 10 μM for 1 hour, then T1117 0.1 μM) | stability under the incubation conditions ([3]; heat-inactivated microsome controls) | metabolic stability, MNF levels ([3]; human liver microsomes and cofactors, 0-60 minutes) | IC50 (CAPAN) |
| --- | --- | --- | --- | --- | --- | --- | --- | --- | --- | --- | --- | --- | --- | --- | --- | --- | --- | --- | --- |
| COc1ccc(C[C@@H](C)NC[C@H](O)c2cc(O)cc(O)c2)c2ccccc12 [(R,R′)-MNF, (R,R′)-4′-methoxy-1-naphthylfenoterol] | −59.4% | less than 70 % of the control | marked reduction in the expression of cell cycle regulator proteins | 54.3±1.2% | ~0.001 µM | comparable | Increases: ~2-fold | Discolored black | Discolored red: | Toxic effects were minimal | less than 70 % of the control | greater decrease in MNF levels | potent inhibition of cellular proliferation | ~70% | ~6.8 fold | dramatically reduced | somewhat unstable under the incubation conditions | greater decrease in MNF levels | – |
| COc1cccc2c1C(=O)c1c(O)c3c(c(O)c1C2=O)C[C@@](O)(C(=O)CO)C[C@@H]3O[C@H]1C[C@H](N)[C@H](O)[C@H](C)O1 [Doxorubicin, reference compound] | – | – | – | – | – | – | – | – | – | – | – | – | – | – | – | – | – | – | 0.23 µM |
